Patent US9464082B2, “Aryl and arylalkyl substituted pyrazolyl and pyrimidinyl tricyclic enones as antioxidant inflammation modulators” (AbbVie Inc., priority 2014, dated 2016)

Tested on: IFNγ-Induced NO Production
Test: Nitric Oxide Suppression Assay (Suppression of IFNγ-Induced NO Production)
Format: cell-based
Conditions: RAW264.7; RAW 264.7 mouse macrophage cells; 2 hour pre-treatment with compound (3 μM to 0.3 nM, 10 point curve); 20 ng/mL interferon gamma, ~18 hour; Griess detection; n=2-3 in duplicates
In short: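 Mouse RAW 264.7 macrophages pre-treated 2 h at 37 °C with compound (3 μM to 0.3 nM, 10 points; DMSO ≤1%), then stimulated with 20 ng/mL interferon gamma for ~18 h. Supernatant nitrite measured by Griess reaction, absorbance 520–550 nm. IC50 from curve fit of signal normalised to IFNγ alone, mean n=2-3 in duplicate.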

Row | Structure (SMILES) | IC50 [nM]
1 | COc1nc(Nc2ccc(Br)cc2)nc2c1CC[C@H]1[C@H](C)C(=O)C(C#N)=C[C@]21c1ccccc1 [Example 15, (6aS,7S,10aR)-2-[(4-bromophenyl)amino]-4-methoxy-7-methyl-8-oxo-10a-phenyl-5,6,6a,7,8,10a-hexahydrobenzo[h]quinazoline-9-carbonitrile] | 30
2 | COC(=O)c1ccc(-c2ncc3c(n2)[C@@]2(c4cccc(C(=O)OC)c4)C=C(C#N)C(=O)[C@@H](C)[C@@H]2CC3)cc1 [Example 101, methyl 3-[(6aS,7S,10aR)-9-cyano-2-[4-(methoxycarbonyl)phenyl]-7-methyl-8-oxo-6,6a,7,8-tetrahydrobenzo[h]quinazolin-10a(5H)-yl]benzoate] | 45.6
3 | Cc1nc(-c2ccc(-c3ccn[nH]3)cc2)c2c(n1)[C@@]1(c3ccc(F)cc3)C=C(C#N)C(=O)[C@@H](C)[C@@H]1CC2 [Example 83, (6aS,7S,10aR)-10a-(4-fluorophenyl)-2,7-dimethyl-8-oxo-4-[4-(1H-pyrazol-5-yl)phenyl]-5,6,6a,7,8,10a-hexahydrobenzo[h]quinazoline-9-carbonitrile] | 16.4
4 | C[C@@H]1C(=O)C(C#N)=C[C@]2(c3ccc(OCc4ccccc4)cc3)c3ncncc3CC[C@@H]12 [Example 120, (6aS,7S,10aR)-10a-[4-(benzyloxy)phenyl]-7-methyl-8-oxo-5,6,6a,7,8,10a-hexahydrobenzo[h]quinazoline-9-carbonitrile] | 5.44
5 | COC(=O)c1cccc([C@]23C=C(C#N)C(=O)[C@@H](C)[C@@H]2CCc2c[nH]nc23)c1 [Example 62, methyl 3-[(5aS,6S,9aR)-8-cyano-6-methyl-7-oxo-2,4,5,5a,6,7-hexahydro-9aH-benzo[g]indazol-9a-yl]benzoate] | 39.4
6 | C[C@@H]1C(=O)C(C#N)=C[C@]2(c3ccc(F)cc3)c3nc(-c4cccnc4)ncc3CC[C@@H]12 [Example 51, (6aS,7S,10aR)-10a-(4-fluorophenyl)-7-methyl-8-oxo-2-(pyridin-3-yl)-5,6,6a,7,8,10a-hexahydrobenzo[h]quinazoline-9-carbonitrile] | 6.14
7 | C[C@@H]1C(=O)C(C#N)=C[C@]2(c3ccccc3)c3nn(C)c(-c4cccc(-c5ccc(N(S(C)(=O)=O)S(C)(=O)=O)cc5)c4)c3CC[C@@H]12 [Example 152, N-{3′-[(5aS,6S,9aR)-8-cyano-2,6-dimethyl-7-oxo-9a-phenyl-4,5,5a,6,7,9a-hexahydro-2H-benzo[g]indazol-3-yl]biphenyl-4-yl}-N-(methylsulfonyl)methanesulfonamide] | 11.5
8 | C[C@@H]1C(=O)C(C#N)=C[C@]2(c3ccccc3)c3c(c(-c4cncnc4)nn3C)CC[C@@H]12 [Example 179, (5aS,6S,9aR)-1,6-dimethyl-7-oxo-9a-phenyl-3-(pyrimidin-5-yl)-4,5,5a,6,7,9a-hexahydro-1H-benzo[g]indazole-8-carbonitrile] | 1.24
9 | C[C@@H]1C(=O)C(C#N)=C[C@]2(c3cccc(C(=O)O)c3)c3nc(-c4ccccc4)ncc3CC[C@@H]12 [Example 100, 3-[(6aS,7S,10aR)-9-cyano-7-methyl-8-oxo-2-phenyl-6,6a,7,8-tetrahydrobenzo[h]quinazolin-10a(5H)-yl]benzoic acid] | 426
